Among the data in the SangsterLogP compilation are logD and logP values, retold here.

Series [1] can be described thus: method code RP-HPLC, from DOI: 10.1081/jlc-120027619. As to conditions: pH 3.1.
Series [2] is described as follows: method code SF-AS, from DOI: 10.1081/jlc-120027619.

Take `O=c1c(-c2ccc(O)cc2)coc2c([C@@H]3O[C@H](CO)[C@@H](O)[C@H](O)[C@H]3O)c(O)ccc12`: the logD in series [1] turned out to be 1.34.

`COc1cc(O)c2c(c1)C(=O)c1cc(C)cc(O)c1C2=O` came in with a log distribution coefficient (logD) in series [1] of 4.93.

In series [1], `O=C(O)c1cc(O)c2c(c1)C(=O)c1cccc(O)c1C2=O` had a logD of 3.68.

For `Cc1cc(O)c2c(c1)C(=O)c1cc(O)cc(O)c1C2=O`, the logD in series [1] was 4.48.

Compound `O=C1c2cccc(O)c2C(=O)c2c(O)cc(CO)cc21` registered a logD in series [1] of 3.18.

Take `Cc1cc(O)c2c(c1)C(=O)c1cccc(O)c1C2=O`: the logD in series [1] came out at 4.39.

In turn, `Cc1cccc2c3c(ccc12)C1=C(C(=O)C3=O)[C@@H](C)CO1` came in with a logP in series [2] of 3.14.

`Cc1coc2c1C(=O)C(=O)c1c-2ccc2c1CCCC2(C)C` showed a logD in series [1] of 5.4.

In series [1], `O=C(O)C(O)Cc1ccc(O)c(O)c1` (configuration not stated) had a logD of 0.11.

For `C[C@H]1COC2=C1C(=O)C(=O)c1c2ccc2c1CCCC2(C)C`, the logD in series [1] stood at 4.72.

On to `Cc1coc2c1C(=O)C(=O)c1c-2ccc2c(C)cccc12`, for which, in series [1], the logD stood at 4.65.

In series [1], `O=Cc1ccc(O)c(O)c1` yielded a logD of 0.82.

As usually defined, the logD is lipophilicity at a set pH, counting ionised and neutral species. A lower logD goes with a more hydrophilic compound. As a reminder, the logP is a log measure of how a compound divides between an organic and an aqueous phase. Low readings indicate a more hydrophilic compound, high ones a more lipophilic compound.
